Laboratory results published in article PMC9770967, “Native holdup (nHU) to measure binding affinities from cell extracts” (Science Advances, 2022).
*1 amine or outer side, *2 acyl side, *3 side chain or, on linkers, in order; H or OH if unused. Where a SMILES comes first, the peptide text is derived from it. The star is where a group is joined. X1 = O=C(CCCC[C@@H]1SC[C@@H]2NC(=O)N[C@@H]21)NCCCOCCOCCOCCCN*; Suc = O=C(CCC(=O)[*:2])[*:1]

Assays:
SCRIB PDZ3 = details: fragmentomic, isolated PDZ domain; cited from earlier work
From the text: Supplement sciadv.ade3828_table_s1.zip/sciadv.ade3828_table_s1.xlsx, sheet "nHU-WB_SP"

[1] = biological target: isolated PDZ domain of SNX27; details: 10-mer PBM peptide vs isolated PDZ domain, holdup; cited from earlier work
SCRIB PDZ1 = details: fragmentomic, isolated PDZ domain; cited from earlier work
From the text: Supplement sciadv.ade3828_table_s1.zip/sciadv.ade3828_table_s1.xlsx, sheet "nHU-WB_SP" | column: Domain-motif fragmentomic affinities (ProfAff)

SNX27_PDZ [2] = assay: nHU-MS, SNX27_PDZ bait, total SH-SY5Y extracts; type: binding, human
Protocol: The empty His6-AviTag-MBP-TEV vector was used to produce biotinylated MBP for control experiments. Proteins were coexpressed with BirA biotin ligase (PET21a-BirA, Addgene, no. 20857) in Escherichia coli BL21(DE3) cells. At isopropyl-β-D-thiogalactopyranoside (IPTG) induction (1 mM IPTG at 18°C overnight), 50 μM biotin was added to the media. Harvested cells were lysed in a buffer containing 50 mM tris (pH 7.5), 150 to 300 mM NaCl, 50 μM biotin, 2 mM β-mercaptoethanol, cOmplete EDTA-free protease inhibitor cocktail (Roche, Basel, Switzerland), 1% Triton X-100, and trace amount of deoxyribonuclease, ribonuclease, and lysozyme. Lysates were frozen at −20°C before further purification steps. Lysates were sonicated and centrifuged for clarification. Expressed proteins were captured on in-house prepacked Ni-IDA (Protino Ni-IDA Resin, Macherey-Nagel, Duren, Germany) columns and were washed with at least 10 column volumes of cold wash buffer [50 mM tris (pH 7.5), 150 mM NaCl, and 2 mM β-mercaptoethanol] before elution with 250 mM imidazole. The Ni elution was collected directly on a preequilibrated amylose column (amylose high flow resin, New England Biolabs, Ipswich, MA). Amylose column was washed with 5 column volumes of cold wash buffer before fractionated elution in a buffer containing 25 mM Hepes (pH 7.5), 150 mM NaCl, 1 mM TCEP, 10% glycerol, 5 mM maltose, and cOmplete EDTA-free protease inhibitor cocktail. The concentration of proteins was determined by their ultraviolet absorption at 280 nm before aliquots were snap-frozen in liquid nitrogen and stored at −80°C.
(§1) For saturating streptavidin resin with biotinylated peptides or biotin, 50 μl of streptavidin resin was mixed with biotin or peptide at 40 to 60 μM concentration in 6 to 6.5 resin volume for 60 min. To saturate streptavidin resin with biotinylated proteins, 50 μl of streptavidin resin (Streptavidin Sepharose High Performance, Cytiva) was mixed with biotinylated MBP or MBP-PDZ at 40 to 50 μM concentration in 20× resin volume for 60 min. After saturation, resins were washed a single time [10 resin volume, holdup buffer: 50 mM tris (pH 7.5), 300 mM NaCl, and 1 mM TCEP, 0.22-μm filtered] and were depleted with biotin (10 resin volume, 10 min, holdup buffer supplemented with 100 μM biotin). Last, resins were washed two times (10 resin volume, holdup buffer).
(§2) For single-point nHU experiments carried out at ~10 μM bait concentration, 50 μl of saturated streptavidin resin was mixed with 200 μl of cell lysate (2 mg/ml). Titration experiments were carried out by mixing control and bait-saturated resin and keeping the total resin volume constant; e.g., ~5 μM bait concentration can be achieved by mixing 25 μl of bait-saturated streptavidin resin with 25 μl of control resin and 200 μl of cell lysate (2 mg/ml). Control and bait-saturated resins were prepared in larger amounts, and a serial dilution was prepared with these presaturated resins to achieve different resin ratios.
Unless specified elswhere, the nHU mixture was incubated at 4°C for 2 hours. After the incubation ended, the resin was separated from the supernatant by a brief centrifugation (15 s, 2000 g). Then, half of the supernatant was removed by pipetting without any delay to avoid any resin contamination; e.g., 100 μl of supernatant is collected if 200 μl of cell lysate was used as analyte. Alternatively, the supernatant can be centrifuged an additional time to clarify it further, removing any possible resin contamination. In principle, the separation of the supernatant should be as fast as possible since any delay can perturb the equilibrium. […] Alternatively, the resin can be separated from the supernatant using filter plates (e.g., various products of Millipore, Burlington, MA) or spin columns (e.g., Pierce spin cups—cellulose acetate filter from Thermo Fisher Scientific, Waltham, MA) to achieve faster separation. […]

TX1BP3_PDZ = assay: nHU-MS, TX1BP3_PDZ (TAX1BP3) bait, total Jurkat extracts (Exploris MS); type: binding, human; details: nHU-MS, total Jurkat extract
From the text: (§3) To further establish the repeatability and robustness of the nHU-MS assay, we repeated the experiments using a different mass spectrometer and six different PDZ domain baits taken from SCRIB (PDZ_1 and PDZ_2), discs large MAGUK scaffold protein 1 (DLG1, PDZ_1, and PDZ_2), Tax1 binding protein 3 (TAX1BP3), and SNX27 (fig. S3B and table S1). […] Of the studied baits, the PDZ domain of SNX27 turned out to be the most promiscuous with 103 statistically significant interaction partners (while 180 SNX27 binding partners were identified in total on the basis of the three independent nHU-MS experiments).
as §1, §2
(§4) Unless specified elswhere, the nHU mixture was incubated at 4°C for 2 hours. After the incubation ended, the resin was separated from the supernatant by a brief centrifugation (15 s, 2000 g). Then, half of the supernatant was removed by pipetting without any delay to avoid any resin contamination; e.g., 100 μl of supernatant is collected if 200 μl of cell lysate was used as analyte. Alternatively, the supernatant can be centrifuged an additional time to clarify it further, removing any possible resin contamination. In principle, the separation of the supernatant should be as fast as possible since any delay can perturb the equilibrium. […] Alternatively, the resin can be separated from the supernatant using filter plates (e.g., various products of Millipore, Burlington, MA) or spin columns (e.g., Pierce spin cups—cellulose acetate filter from Thermo Fisher Scientific, Waltham, MA) to achieve faster separation.
(§5) The nHU samples were precipitated with trichloroacetic acid (TCA) 20% overnight at 4°C and centrifuged at 14,000 rpm for 10 min at 4°C. The protein pellets were washed twice with 1 ml of cold acetone and air-dried. The protein extracts were solubilized in 8 M urea, reduced with 5 mM TCEP for 30 min, and alkylated with 10 mM iodoacetamide for 30 min in the dark. Double digestion was performed at 37°C with 500 ng of endoproteinase Lys-C (Wako, Richmond, USA) for 4 hours, followed by fourfold dilution and an overnight digestion with 500 ng of trypsin (Promega, Charbonnieres les Bains, France). Peptide mixtures were then desalted on a C18 spin-column and dried on a speed vacuum.
(§6) Samples were analyzed using an Ultimate 3000 nano-RSLC coupled in line via a nano-electrospray ionization source, with an LTQ-Orbitrap ELITE mass spectrometer (Thermo Fisher Scientific, San Jose, CA) or with the Orbitrap Exploris 480 mass spectrometer (Thermo Fisher Scientific, Bremen, Germany) equipped with a high field asymmetric ion mobility spectrometry (FAIMS) module. […]

SCRIB_PDZ_2 = assay: nHU-MS, SCRIB_PDZ_2 bait, total Jurkat extracts (Exploris MS); type: binding, human; details: nHU-MS
From the text: as §3, §1, §2, §4, §5, §6

DLG1_PDZ_2 = assay: nHU-MS, DLG1_PDZ_2 bait, total Jurkat extracts (Exploris MS); type: binding, human; details: Jurkat extract
From the text: as §3, §1, §2, §4, §5, §6

SNX27_PDZ [3] = assay: nHU-MS, SNX27_PDZ bait, total Jurkat extracts, series 2 (Exploris MS); type: binding, human; details: Jurkat, series 2; n = 3
From the text: as §3, §1, §2, §4, §5, §6

DLG1_PDZ_1 = assay: nHU-MS, DLG1_PDZ_1 bait, total Jurkat extracts (Exploris MS); type: binding, human
From the text: as §3, §1, §2, §4, §5, §6

SCRIB_PDZ_1 = assay: nHU-MS, SCRIB_PDZ_1 bait, total Jurkat extracts (Exploris MS); type: binding, human; details: nHU-MS
From the text: as §3, §1, §2, §4, §5, §6

CC[C@H](C)[C@H](NC(=O)[C@H](CCC(N)=O)NC(=O)[C@H](CO)NC(=O)[C@@H](NC(=O)[C@H](CCC(N)=O)NC(=O)[C@@H](NC(=O)[C@H](CC(N)=O)NC(=O)[C@H](CCCNC(=N)N)NC(=O)[C@@H]1CCCN1C(=O)[C@H](CC(=O)O)NC(=O)CCC(=O)NCCCOCCOCCOCCCNC(=O)CCCC[C@@H]1SC[C@@H]2NC(=O)N[C@@H]21)[C@@H](C)O)[C@@H](C)O)C(=O)O [ABRAXAS2] ({X1-Suc}-DPRNTQTSQI-OH; C-terminus assumed)
pKd_PDZ3 (SCRIB PDZ3): 4.01 | pKd (fragmentomic affinity) [1]: 4.04 | pKd_PDZ1 (SCRIB PDZ1): 4.02

KARS1: Lysine--tRNA ligase
pKapp_HU_not_filtered (SNX27_PDZ [2]; apparent, Eq. 2, not filtered for significance): 4.711 | pKapp_significant_binders_HU (SNX27_PDZ [2]; apparent, Eq. 2, significant binders (1 σ, P < 0.05)): 4.711 | BI_HU (SNX27_PDZ [2]; n = 6): 0.3389

PIGBOS1: Protein PIGBOS1 (MFRRLTFAQLLFATVLGIAGGVYIFQPVFEQYAKDQKELKEKMQLVQESEEKKS; UniProt A0A0B4J2F0 1-54, looked up)
BI (TX1BP3_PDZ; TX1BP3_PDZ bait vs MBP): -0.09136 | Difference log2 (TX1BP3_PDZ; TX1BP3_PDZ vs MBP): 0.1261 | Ratio TX1BP3/MBP (TX1BP3_PDZ; TX1BP3_PDZ): 1.091 | Ratio SCRIB_2/MBP (SCRIB_PDZ_2; SCRIB_PDZ_2, total Jurkat extract): 1.081 | BI (SCRIB_PDZ_2; SCRIB_PDZ_2 bait vs MBP, total Jurkat extract): -0.08098 | Difference log2 (SCRIB_PDZ_2; SCRIB_PDZ_2 vs MBP, total Jurkat extract): 0.1123 | Difference log2 (DLG1_PDZ_2; DLG1_PDZ_2 bait vs MBP): 0.04834 | Ratio DLG1_2/MBP (DLG1_PDZ_2; DLG1_PDZ_2 bait vs MBP): 1.034 | BI (DLG1_PDZ_2; DLG1_PDZ_2 bait): -0.03407 | BI (SNX27_PDZ [3]): -0.08774 | Difference log2 (SNX27_PDZ [3]): 0.1213 | Ratio SNX27/MBP (SNX27_PDZ [3]): 1.088 | Ratio DLG1_1/MBP (DLG1_PDZ_1; DLG1_PDZ_1, total Jurkat extract): 0.91 | BI (DLG1_PDZ_1; DLG1_PDZ_1 bait vs MBP, total Jurkat extract): 0.08999 | pKd (DLG1_PDZ_1; DLG1_PDZ_1 bait, total Jurkat extract, not filtered for significance (pKdsign N/D)): 3.996 | Difference log2 (DLG1_PDZ_1; DLG1_PDZ_1 vs MBP, total Jurkat extract): -0.136 | Ratio SCRIB_1/MBP (SCRIB_PDZ_1; SCRIB_PDZ_1, total Jurkat extract): 1.118 | BI (SCRIB_PDZ_1; SCRIB_PDZ_1 bait vs MBP, total Jurkat extract): -0.1177 | Difference log2 (SCRIB_PDZ_1; SCRIB_PDZ_1 vs MBP, total Jurkat extract): 0.1605
